pIC50: −log10 of the molar value.
Experiment: Inhibition of RIP1 in human U937 cells assessed as prevention of TNFalpha/zVAD.fmk-induced necrotic cell death preincubated for 30 to 60 mins followed by TNF-alpha induction measured after overnight incubation by Cell Titer-Glo luminescence assay

`NC(=O)c1cccc(-c2cnc3[nH]cc(-c4cccc(NC(=O)Nc5cc(C(F)(F)F)ccc5F)c4)c3c2)c1` and `CS(=O)(=O)c1cccc(-c2cnc3[nH]cc(-c4cccc(NC(=O)Nc5cc(C(F)(F)F)ccc5F)c4)c3c2)c1` are within 0.2 log units of each other in pIC50: 7.20 for the first, 7.30 for the second.

Going from `O=C(Nc1cccc(-c2c[nH]c3ncc(-c4cn[nH]c4)cc23)c1)Nc1cc(C(F)(F)F)ccc1F` to `O=C(Nc1cccc(-c2c[nH]c3ncc(-c4cccnc4)cc23)c1)Nc1cc(C(F)(F)F)ccc1F`, the pIC50 rises from 7.20 to 8.20 (1.00 log units).

Going from `O=C(Nc1cccc(-c2c[nH]c3ncc(-c4ccccc4)cc23)c1)Nc1cc(C(F)(F)F)ccc1F` to `Nc1ccc(-c2cnc3[nH]cc(-c4cccc(NC(=O)Nc5cc(C(F)(F)F)ccc5F)c4)c3c2)cc1`, the pIC50 rises from 6.80 to 7.80 (1.00 log units).

Going from `Nc1nccc2c(-c3ccc(NC(=O)Nc4cc(F)cc(C(F)(F)F)c4)cc3)cccc12` to `Nc1nccc2c(-c3ccc(NC(=O)Nc4cccc(C(F)(F)F)c4)cc3)cccc12`, the pIC50 rises from 5.60 to 6.20 (0.60 log units). The second is the more potent here.

First: CC(C)(C)c1cc(NC(=O)Nc2ccc(-c3coc4ncnc(N)c34)cc2)no1
Second: Nc1ncnc2occ(-c3ccc(NC(=O)Nc4cccc(Cl)c4)cc3)c12
The pIC50 of the first is 1.60 log units higher: 6.70 for the first, 5.10 for the second.

`CC(=O)c1cccc(NC(=O)Nc2cccc(-c3c[nH]c4ncc(-c5ccccc5)cc34)c2)c1` and `COc1cccc(NC(=O)Nc2cccc(-c3c[nH]c4ncc(-c5ccccc5)cc34)c2)c1` are within 0.2 log units of each other in pIC50: 6.49 for the first, 6.40 for the second.

Compared with `Nc1ncnc2occ(-c3ccc(NC(=O)Nc4cccc(C(F)(F)F)c4)cc3)c12` [3-(4-{4-aminofuro[2,3-d]pyrimidin-5-yl}phenyl)-1-[3-(trifluoromethyl)phenyl]urea], `Nc1ncnc2occ(-c3ccc(NC(=O)Nc4cc(F)cc(C(F)(F)F)c4)cc3)c12` is 0.70 log units lower in pIC50: 6.00 for the first, 5.30 for the second.

`Nc1nccc2c(-c3ccc(NC(=O)Nc4ccc(Cl)c(C(F)(F)F)c4)cc3)cccc12` and `Nc1nccc2c(-c3ccc(NC(=O)Nc4ccc(F)c(C(F)(F)F)c4)cc3)cccc12` are within 0.2 log units of each other in pIC50: 5.70 for the first, 5.60 for the second.

Compared with `Nc1ncnc2occ(-c3ccc(NC(=O)Nc4ccc5ccccc5c4)cc3)c12` [3-(4-{4-aminofuro[2,3-d]pyrimidin-5-yl}phenyl)-1-naphthalen-2-ylurea], `CCc1cccc(NC(=O)Nc2ccc(-c3coc4ncnc(N)c34)cc2)c1` is 0.50 log units higher in pIC50: 6.10 for the first, 6.60 for the second. The second is the more potent here.

First: O=C(Nc1ccccc1)Nc1cccc(-c2c[nH]c3ncc(-c4ccccc4)cc23)c1 [1-phenyl-3-(3-(5-phenyl-1H-pyrrolo[2,3-b]pyridin-3-yl)phenyl)urea]
Second: O=C(Nc1cccc(-c2c[nH]c3ncc(-c4ccccc4)cc23)c1)Nc1cccc([N+](=O)[O-])c1
The pIC50 of the first is 0.27 log units lower: 6.22 for the first, 6.49 for the second.

Compared with `Nc1ncnc2occ(-c3ccc(NC(=O)Nc4cccc(C(F)(F)F)c4F)cc3)c12`, `Nc1ncnc2occ(-c3ccc(NC(=O)Nc4ccc(F)c(C(F)(F)F)c4)cc3)c12` is 0.89 log units higher in pIC50: 5.00 for the first, 5.89 for the second. The second is the more potent here.

First: Nc1ncnc2occ(-c3ccc(NC(=O)Nc4cc(C(F)(F)F)cc(C(F)(F)F)c4)cc3)c12 [3-(4-{4-aminofuro[2,3-d]pyrimidin-5-yl}phenyl)-1-[3,5-bis(trifluoromethyl)phenyl]urea]
Second: Nc1ncnc2occ(-c3ccc(NC(=O)Nc4ccc(Cl)c(C(F)(F)F)c4)cc3)c12
The pIC50 of the first is 0.79 log units lower: 5.10 for the first, 5.89 for the second.

Going from `Nc1nccc2c(-c3ccc(NC(=O)Nc4cc(C(F)(F)F)ccc4Cl)cc3)cccc12` to `Nc1nccc2c(-c3ccc(NC(=O)Nc4cc(C(F)(F)F)ccc4F)cc3)cccc12`, the pIC50 rises from under 5.00 to 6.20. The second is the more potent here.

First: CCS(=O)(=O)c1ccc(-c2cnc3[nH]cc(-c4cccc(NC(=O)Nc5cc(C(F)(F)F)ccc5F)c4)c3c2)cc1
Second: O=C(Nc1cccc(-c2c[nH]c3ncc(-c4ccccc4)cc23)c1)Nc1cccc(C(F)(F)F)c1
The pIC50 of the first is 0.50 log units higher: 7.60 for the first, 7.10 for the second. The first is the more potent here.

Compound `O=C(Nc1cccc(-c2c[nH]c3ncc(-c4ccccc4)cc23)c1)NC1CCCC1` has a pIC50 of 5.10.

From BindingDB's records for doi:10.1021/ml400382p (Glaxosmithkline, 2013)
